The target of assay [1] is T1, HBV capsid (C150BO) (Hepatitis B virus genotype D subtype adw, UniProt P03147, C107A/C48A/C61A).
T1 construct: For fluorescent labeling, the mutant C150 (Zlotnick et al., 1997); made in house; host or cells: E. coli
The experiment in a line: Example 2 in vitro assembly reactions with labeled capsid polypeptide C150BO, plate reader. The assay is classed as biochemical. The conditions noted are these: % assembly at 1 hour (FIG. 7); conditions induced 25% (±5%) assembly in the absence of drugs. As for the experimental part:
The assays were carried out as described in Example 1, except as described herein after. Samples were read in 3 minute intervals for one hour and again at 24 hours using a Tecan filter-based plate reader with a standard fluorescein filter set.
FIG. 7 illustrates a typical experiment comparing different compounds, including some heteroaryldihydropyrimidine (HAP) derivatives. In this experiment, assembly conditions induced 25% (±5%) assembly in the absence of drugs.

Assay [2] has as its target T1, HBV capsid (C150BO). The experiment in a line: BODIPY-FL fluorescence quenching assay of C150BO capsid assembly, compared to size-exclusion chromatography. The assay is classed as biochemical, HBV strain adyw. The conditions noted are these: for effect on C150BO assembly (fluorescence, size-exclusion chromatography): 3 μM C150BO, 21° C.; for effect on assembly and quenching in mock assembly reactions: mock-assembled, low salt / no NaCl, time not stated; for effect on fluorescence of mock-assembled C150BO dimer (intrinsic quenching control): early times (up to 2 h). Here is the method:
Mutagenesis: For simplicity of chemical labeling, the cysteine residues (C48, C61 and C107) in the assembly domain of HBV strain adyw core protein (amino acids 1-149 (Zlotnick et al., 1996), core protein 149) were mutated to alanine, inserting a unique cysteine residue at the C terminus (C150). Mutagenesis was performed using QuikChange Multi (Stratagene). Mutagenic primers are described in Table III (IDT DNA technologies). Mutations were confirmed by dye terminator dideoxy sequencing (DNA Sequencing Core, Oklahoma Medical Research Foundation). The resulting mutant protein is referred to herein as C150.
Protein expression, purification and dye labeling: Wild-type and mutant truncated HBV capsid protein dimers were expressed and purified from E. coli as described in Zlotnick et al., 1996 and Zlotnick et al., 2002. Protein was quantified by absorbance at 280 nm (ε=60,900 M^−1 cm^−1). DTT levels were maintained at 5 mM throughout purification and storage. Immediately before derivatization, C150 protein was removed from storage buffer by chromatography over a G25 PD10 desalting column (Amersham Biosciences) equilibrated with ice-cold 50 mM HEPES pH 7.5 without DTT. Peak fractions were reacted with BODIPY-FL maleimide (Invitrogen/Molecular Probes) on ice at a final concentration of 4 mM from a 20 mM BODIPY-FL stock in DMSO. Most complete labeling was achieved by overnight reaction, although significant labeling could be achieved by reaction for as little as 10 min. Unreacted dye was removed by separation over a G25 PD10 desalting column equilibrated in ice-cold 50 mM HEPES, pH 7.5. The degree of dye labeling was determined using absorbance at 504 nm (ε504=73,000 M^−1 cm^−1, ε280=1,300 M^−1 cm^−1). The extinction coefficient was calculated by determining the degree of labeling of BODIPY-FL-labeled C150 preps by MALDI-TOF mass spectrometry. Yield of BODIPY-FL-labeled C150 was typically on the order of 1.9 moles of dye per mole of dimer. Labeling of C150 with fluorescein maleimide was compared to BODIPY-FL; BODIPY-FL conjugates gave a much stronger assembly-dependent change in fluorescence than did fluorescein.
Fluorescence and light scattering: Assembly was monitored by fluorescence using a SPEX Fluoromax-2 fluorometer (Horiba Jobin Yvon), using a 0.3-cm path-length cuvette (Hellma) or in black 96-well COSTAR fluorescence microtiter plates (Corning) using a MicroMax adaptor. Assembly reactions were performed at 21° C. Assembly was initiated manually by mixing core protein in 50 mM HEPES, pH 7.5, with buffered NaCl (Sigma) as appropriate. Fluorescence was excited at 504 nm and emission was measured at 509 nm (1-nm band pass for each). For static measurements, all measurements were recorded in triplicate. Qualitatively similar results were obtained using excitation at 495 nm and emission at 512 nm (commonly used for fluorescein fluorescence). Measuring fluorescence of the same reactions in either a cuvette or a 96-well fluorescence microtiter plate gave identical quenching values.
Size-exclusion chromatography: Assembly reactions were examined by SEC on a Superose 6 10/30 column (Amersham Biosciences) mounted on a Shimadzu high-performance liquid chromatography system equipped with an auto injection module (Shimadzu). The column was equilibrated with 50 mM HEPES, pH 7.5, 50 mM NaCl. Recovered protein was assigned either to the void (6.5-7.0 ml), capsid (7.0-8.3 ml), dimer (15-16.5 ml) or intermediate elution (8.3-15 ml).
(SEC sorts molecules by how far they enter the pores of the column.)

Assay [3] deals with HBV core protein (Hepatitis B virus genotype D subtype adw, UniProt P03147). Also on record: concentration leading to formation of aberrant particles: unit not given here. The conditions noted are these: Stray et al., 2005, cited from earlier work.

“Also recorded” adds a separate entry of the source.

The values below come from US7329485B2, “Methods for detecting compounds that interfere with protein aggregation utilizing an in vitro fluorescence-based assay” (priority 2005, dated 2008).

T1 sequence (P03147 1-150, looked up, stated change not applied): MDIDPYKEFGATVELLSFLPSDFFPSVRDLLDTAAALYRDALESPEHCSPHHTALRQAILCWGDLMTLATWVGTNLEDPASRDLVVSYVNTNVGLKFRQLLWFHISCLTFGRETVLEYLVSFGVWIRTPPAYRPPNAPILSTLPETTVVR
Chain of HBV core protein (P03147 1-149): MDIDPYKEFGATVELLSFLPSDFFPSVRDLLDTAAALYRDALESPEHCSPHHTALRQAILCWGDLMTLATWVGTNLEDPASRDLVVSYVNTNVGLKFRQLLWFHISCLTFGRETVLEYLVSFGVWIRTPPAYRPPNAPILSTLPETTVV

As to `NC(N)=O` [urea], the “effect on % assembly of HBV capsid by fluorescence” value in assay [1] is reported as “only showed marginal assembly inhibition”. The “effect on C150BO assembly (fluorescence, size-exclusion chromatography)” value in assay [2] (0.5 M NaCl, 24 h (FIG. 6b)) was “inhibited assembly; also recorded: A decrease in assembly by SEC and an increase in fluorescence”. For the same compound, the “effect on assembly and quenching in mock assembly reactions” value in assay [2] is given as “affected neither assembly nor quenching”. The “effect on fluorescence of mock-assembled C150BO dimer (intrinsic quenching control)” value in assay [2] (without NaCl) is given as “No reduction in fluorescence”.
As to `COC(=O)C1=C(C)NC(c2ccccn2)=NC1c1ccc(F)cc1Cl` (stereo not shown) [HAP-1], the “effect on C150BO assembly (fluorescence, size-exclusion chromatography)” value in assay [2] (150 mM NaCl, 24 h (FIG. 6a)) was “enhanced assembly, leading to enhanced quenching; also recorded: substantially increased both the rate and the extent of C150BO assembly”. For the same compound, the “effect on assembly and quenching in mock assembly reactions” value in assay [2] is listed as “able to induce slow C150BO assembly”. Besides, the “quenching and assembly in mock-assembled controls” value in assay [2] (without NaCl, after 24 h) is “showed both BODIPY-FL quenching and assembly by SEC”. In addition, the “effect on fluorescence of mock-assembled C150BO dimer (intrinsic quenching control)” value in assay [2] (without NaCl) is “No reduction in fluorescence; also recorded: no effect on fluorescence”. In addition, the “concentration leading to formation of aberrant particles” value in assay [3] (>1 HAP-1 molecule per dimer) was ≥ 10. Moreover, the “effect on HBV core protein assembly in vitro” value in assay [3] (broad range of concentrations) is “enhanced the rate and extent of HBV core protein assembly”.
